# Source: ChEMBL document CHEMBL1201862, “PubChem BioAssay data set” (2004)
# Active and inactive are the calls of the source.
# Assays:
# [1] = viability of PTEN-deleted HCT116 cells – cell-based, HCT116 PTEN knockout, dose response (AID 1047); assay type: functional;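 further: HCT116 colon tumor cells with PTEN knocked out; cells exposed to compound for 60 hours before readout; potency for loss of cell viability measured by luminescence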
# [2] = viability of HCT116 lacking mutant beta-catenin – cell-based, human colon tumor, dose response (AID 1045); assay type: functional;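 further: HCT116 colon tumor cells with beta catenin knocked out; cells exposed to compound for 60 hours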
# [3] = target: Alkaline phosphatase, placental type (Homo sapiens, UniProt P05187); experiment: human placental alkaline phosphatase inhibition – biochemical, luminescence, confirmation (AID 1512); assay type: functional
# [4] = target: T1, Alkaline phosphatase, tissue-nonspecific isozyme (Homo sapiens, UniProt P05186); experiment: potency against alkaline phosphatase TNAP – biochemical, luminescent, dose response, SAR follow-up (AID 1056)
# T1 sequence (P05186 whole entry): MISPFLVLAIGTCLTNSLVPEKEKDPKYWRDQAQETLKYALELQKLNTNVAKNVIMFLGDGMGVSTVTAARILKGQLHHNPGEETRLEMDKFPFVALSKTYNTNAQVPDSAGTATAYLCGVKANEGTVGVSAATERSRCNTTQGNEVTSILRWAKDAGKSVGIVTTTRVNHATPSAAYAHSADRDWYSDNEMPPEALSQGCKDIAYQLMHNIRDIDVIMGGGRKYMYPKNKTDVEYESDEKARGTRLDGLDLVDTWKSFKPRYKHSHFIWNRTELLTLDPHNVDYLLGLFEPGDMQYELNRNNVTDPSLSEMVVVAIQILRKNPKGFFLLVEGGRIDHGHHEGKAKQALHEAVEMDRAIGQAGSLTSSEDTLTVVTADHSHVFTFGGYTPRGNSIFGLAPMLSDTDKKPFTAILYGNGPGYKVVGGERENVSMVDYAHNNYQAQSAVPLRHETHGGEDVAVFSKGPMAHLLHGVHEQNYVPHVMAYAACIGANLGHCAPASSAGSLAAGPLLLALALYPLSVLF
# Integrin alpha-L = Integrin alpha-L (Mus musculus, UniProt P24063); experiment: modulators of CD8 T cell-vesicle binding, dose response, powder samples, mouse 2C CD8+ cells (AID 504565); assay type: functional
# [5] = reduction of Shn3 3'UTR-driven luciferase in osteoblasts – cell-based, Clone20 osteoblasts, firefly luciferase, cherry-picked, dose response (AID 624132); assay type: functional;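 further: firefly luciferase luminescence from reporter carrying the Shn3 3'UTR in osteoblasts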
# Mu-type opioid receptor = Mu-type opioid receptor (Homo sapiens, UniProt P35372); experiment: SAR Analysis of Antagonists of the MOR Receptor using an Image-Based Assay - Set 3. [Related pubchem assays (depositor defined):AID1777, AID1785, AID1786, AID1966, AID2133, AID2136, AID2284, AID2285, AID2420]; assay type: functional
# Sequence of Mu-type opioid receptor (P35372 whole entry): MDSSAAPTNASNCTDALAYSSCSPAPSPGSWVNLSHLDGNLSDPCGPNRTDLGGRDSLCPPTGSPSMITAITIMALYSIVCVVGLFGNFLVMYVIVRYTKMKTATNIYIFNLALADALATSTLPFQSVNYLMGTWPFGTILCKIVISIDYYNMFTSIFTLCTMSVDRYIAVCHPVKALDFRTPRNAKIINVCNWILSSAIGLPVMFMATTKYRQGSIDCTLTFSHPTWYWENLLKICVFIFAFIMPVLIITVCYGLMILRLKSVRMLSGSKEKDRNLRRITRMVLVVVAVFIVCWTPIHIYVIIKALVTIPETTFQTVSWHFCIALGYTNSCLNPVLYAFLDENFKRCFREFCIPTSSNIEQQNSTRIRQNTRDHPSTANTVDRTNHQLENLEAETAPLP
# [6] = target: Delta-type opioid receptor (Homo sapiens, UniProt P41143); experiment: SAR Analysis of Antagonists of the DOR Receptor using an Image-Based Assay - Set 3. [Related pubchem assays (depositor defined):AID1777, AID1785]; assay type: functional;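 further: U2OS cells expressing DOR1 and beta-arrestin GFP stimulated with 100 nM SNC80; imaging of GFP-tagged beta-arrestin moving into spots after receptor activation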
# Sequence of Delta-type opioid receptor (P41143 whole entry): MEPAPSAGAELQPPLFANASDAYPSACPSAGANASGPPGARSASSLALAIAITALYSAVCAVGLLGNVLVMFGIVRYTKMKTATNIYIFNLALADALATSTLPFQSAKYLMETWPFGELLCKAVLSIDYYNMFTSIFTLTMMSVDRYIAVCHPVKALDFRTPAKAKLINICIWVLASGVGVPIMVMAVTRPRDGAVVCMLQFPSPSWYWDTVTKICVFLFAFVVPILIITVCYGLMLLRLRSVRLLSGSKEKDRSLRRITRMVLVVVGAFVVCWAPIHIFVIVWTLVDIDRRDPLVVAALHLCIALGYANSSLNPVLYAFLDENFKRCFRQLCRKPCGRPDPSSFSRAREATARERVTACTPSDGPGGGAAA
# [7] = target: T2, Kappa-type opioid receptor (Homo sapiens, UniProt P41145); experiment: SAR analysis of small molecule antagonists of the kappa opioid receptor via a luminescent beta-arrestin assay - Set 3. [Related pubchem assays (depositor defined):AID1777, AID1778, AID1785, AID1786, AID1966, AID2133, AID2136, AID2285, AID2495]; assay type: functional
# T2 sequence (P41145 whole entry): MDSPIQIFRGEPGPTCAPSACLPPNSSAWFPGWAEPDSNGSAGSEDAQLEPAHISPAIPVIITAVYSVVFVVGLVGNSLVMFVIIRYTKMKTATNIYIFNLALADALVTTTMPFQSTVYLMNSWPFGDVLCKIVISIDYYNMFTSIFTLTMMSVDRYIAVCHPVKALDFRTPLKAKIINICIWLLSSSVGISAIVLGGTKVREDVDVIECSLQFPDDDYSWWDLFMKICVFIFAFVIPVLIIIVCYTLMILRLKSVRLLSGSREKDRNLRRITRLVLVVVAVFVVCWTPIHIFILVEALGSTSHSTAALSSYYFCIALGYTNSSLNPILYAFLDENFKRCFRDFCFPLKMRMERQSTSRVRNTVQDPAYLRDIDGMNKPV
# [8] = target: T2, Kappa-type opioid receptor; experiment: SAR analysis of Antagonists of the Kappa Opioid Receptor (KOR) using an Image-Based Assay - Set 3. [Related pubchem assays (depositor defined):AID1777, AID1785]; assay type: functional
# [9] = target: T3, RNA-binding protein pos-1 (Caenorhabditis elegans, UniProt G5EF15); experiment: disruptors of C. elegans POS-1 RNA interaction – biochemical, fluorescence polarization, dose response (AID 1964);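 further: purified POS-1 fused to maltose binding protein made in E. coli; potency of compounds blocking POS-1 binding to fluorescent RNA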
# T3 sequence (G5EF15 whole entry): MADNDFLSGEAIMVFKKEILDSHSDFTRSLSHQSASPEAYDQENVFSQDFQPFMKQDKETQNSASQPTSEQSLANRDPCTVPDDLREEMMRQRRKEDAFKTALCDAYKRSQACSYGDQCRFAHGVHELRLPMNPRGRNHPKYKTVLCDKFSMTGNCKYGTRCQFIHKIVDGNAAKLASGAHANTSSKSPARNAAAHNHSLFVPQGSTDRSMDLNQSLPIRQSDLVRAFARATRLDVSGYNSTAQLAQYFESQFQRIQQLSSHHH
# [10] = Counterscreen for IDE inhibitors: Luminescence-based cell-based high throughput dose response assay to identify compounds that are cytotoxic to HEK cells. [Related pubchem assays: 434962 (Primary screen (IDE inhibitors in singlicate)), 449730 (Counterscreen (Cytotoxicity in triplicate)), 435028 (Confirmation (IDE inhibitors in triplicate)) …; assay type: functional; details: HEK293
# [11] = target: T4, Zinc finger protein mex-5 (Caenorhabditis elegans, UniProt Q9XUB2); experiment: potency of MEX-5 RNA-binding blockers – biochemical, C. elegans, fluorescence polarization, dose response (AID 1960)
# T4 sequence (Q9XUB2 whole entry): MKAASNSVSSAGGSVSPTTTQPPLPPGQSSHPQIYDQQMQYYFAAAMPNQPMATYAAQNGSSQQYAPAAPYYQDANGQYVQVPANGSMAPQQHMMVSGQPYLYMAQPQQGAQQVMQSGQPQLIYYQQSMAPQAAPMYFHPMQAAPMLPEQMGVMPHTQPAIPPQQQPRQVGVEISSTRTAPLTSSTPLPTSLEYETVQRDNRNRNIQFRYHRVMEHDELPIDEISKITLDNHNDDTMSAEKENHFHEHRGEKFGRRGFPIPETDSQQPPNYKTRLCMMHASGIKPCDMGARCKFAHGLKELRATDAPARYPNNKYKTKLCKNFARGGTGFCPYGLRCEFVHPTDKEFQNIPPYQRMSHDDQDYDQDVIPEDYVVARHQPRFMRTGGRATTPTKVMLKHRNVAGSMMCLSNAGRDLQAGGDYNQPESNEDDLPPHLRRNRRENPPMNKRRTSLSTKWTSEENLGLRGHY
# Insulin-degrading enzyme = Insulin-degrading enzyme (Homo sapiens, UniProt P14735); experiment: Dose Response: Fluorescence polarization-based cell-based high throughput dose response assay for inhibitors of insulin-degrading enzyme (IDE). [Related pubchem assays: 434962 (Primary screen (IDE inhibitors in singlicate)), 449730 (Counterscreen (Cytotoxicity in triplicate)), 435028 (Confirmation (IDE inhibitors in triplicate)), 434984 (Summary …; assay type: functional
# [12] = target: 1-acylglycerol-3-phosphate O-acyltransferase ABHD5/Perilipin-5 (Homo sapiens, UniProt Q00G26+Q8WTS1); experiment: Luminescence-based biochemical high throughput dose response assay for inhibitors of the interaction of the lipase co-activator protein, abhydrolase domain containing 5 (ABHD5) with perilipin-5 (MLDP; PLIN5) (2K validation set). [Related pubchem assays (depositor defined):AID493035, AID493241]
# Sequence of 1-acylglycerol-3-phosphate O-acyltransferase ABHD5/Perilipin-5 (Q00G26 whole entry, the tested form may be a part): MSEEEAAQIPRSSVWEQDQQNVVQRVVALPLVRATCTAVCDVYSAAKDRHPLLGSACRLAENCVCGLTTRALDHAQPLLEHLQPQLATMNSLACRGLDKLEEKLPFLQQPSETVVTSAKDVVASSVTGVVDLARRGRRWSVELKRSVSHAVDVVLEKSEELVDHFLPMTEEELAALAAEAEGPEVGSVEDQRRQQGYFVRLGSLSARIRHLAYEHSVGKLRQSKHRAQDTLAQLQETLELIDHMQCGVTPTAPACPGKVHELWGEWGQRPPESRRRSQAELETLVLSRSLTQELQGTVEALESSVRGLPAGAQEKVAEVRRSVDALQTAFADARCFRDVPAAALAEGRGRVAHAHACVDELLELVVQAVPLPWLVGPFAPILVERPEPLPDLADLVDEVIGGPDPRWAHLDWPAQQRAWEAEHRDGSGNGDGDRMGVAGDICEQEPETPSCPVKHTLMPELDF
# Sequence of 1-acylglycerol-3-phosphate O-acyltransferase ABHD5/Perilipin-5 (Q8WTS1 whole entry, the tested form may be a part): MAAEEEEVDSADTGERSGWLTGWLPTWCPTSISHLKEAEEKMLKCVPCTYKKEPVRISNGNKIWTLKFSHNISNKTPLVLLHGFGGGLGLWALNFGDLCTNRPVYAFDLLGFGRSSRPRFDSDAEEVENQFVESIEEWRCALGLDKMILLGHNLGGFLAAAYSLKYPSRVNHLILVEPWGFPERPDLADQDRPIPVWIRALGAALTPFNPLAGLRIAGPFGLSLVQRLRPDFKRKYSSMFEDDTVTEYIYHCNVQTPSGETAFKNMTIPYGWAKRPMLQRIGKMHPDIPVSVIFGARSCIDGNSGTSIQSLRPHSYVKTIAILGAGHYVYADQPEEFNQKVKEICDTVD
# Perilipin-1/ABHD5 = Perilipin-1/ABHD5 (Homo sapiens, UniProt O60240+Q8WTS1); experiment: Luminescence-based biochemical high throughput dose response assay for inhibitors of the interaction of the lipase co-activator protein, abhydrolase domain containing 5 (ABHD5) with perilipin-1 (PLIN1) (2K validation set). [Related pubchem assays (depositor defined):AID493027, AID493057]
# Sequence of Perilipin-1/ABHD5 (Q8WTS1 whole entry, the tested form may be a part): as above
# Sequence of Perilipin-1/ABHD5 (O60240 whole entry, the tested form may be a part): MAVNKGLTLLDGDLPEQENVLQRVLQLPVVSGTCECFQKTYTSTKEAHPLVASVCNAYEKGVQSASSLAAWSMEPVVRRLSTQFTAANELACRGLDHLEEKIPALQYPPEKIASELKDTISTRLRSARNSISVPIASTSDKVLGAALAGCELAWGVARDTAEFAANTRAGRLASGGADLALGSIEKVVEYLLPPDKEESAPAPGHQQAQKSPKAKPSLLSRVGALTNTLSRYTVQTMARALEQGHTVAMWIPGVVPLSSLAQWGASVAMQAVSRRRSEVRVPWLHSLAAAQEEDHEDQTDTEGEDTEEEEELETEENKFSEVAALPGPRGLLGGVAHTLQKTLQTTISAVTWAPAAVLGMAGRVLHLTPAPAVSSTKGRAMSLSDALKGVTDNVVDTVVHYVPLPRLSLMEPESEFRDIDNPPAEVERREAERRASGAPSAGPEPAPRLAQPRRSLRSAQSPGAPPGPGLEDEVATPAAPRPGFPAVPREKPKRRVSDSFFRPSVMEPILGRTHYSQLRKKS
# Coagulation factor XII = target: T5, Coagulation factor XII (Homo sapiens, UniProt P00748); experiment: activated coagulation factor XII inhibitor potency, concentration-effect curve, cell-free (AID 716); assay type: functional
# T5 sequence (P00748 whole entry): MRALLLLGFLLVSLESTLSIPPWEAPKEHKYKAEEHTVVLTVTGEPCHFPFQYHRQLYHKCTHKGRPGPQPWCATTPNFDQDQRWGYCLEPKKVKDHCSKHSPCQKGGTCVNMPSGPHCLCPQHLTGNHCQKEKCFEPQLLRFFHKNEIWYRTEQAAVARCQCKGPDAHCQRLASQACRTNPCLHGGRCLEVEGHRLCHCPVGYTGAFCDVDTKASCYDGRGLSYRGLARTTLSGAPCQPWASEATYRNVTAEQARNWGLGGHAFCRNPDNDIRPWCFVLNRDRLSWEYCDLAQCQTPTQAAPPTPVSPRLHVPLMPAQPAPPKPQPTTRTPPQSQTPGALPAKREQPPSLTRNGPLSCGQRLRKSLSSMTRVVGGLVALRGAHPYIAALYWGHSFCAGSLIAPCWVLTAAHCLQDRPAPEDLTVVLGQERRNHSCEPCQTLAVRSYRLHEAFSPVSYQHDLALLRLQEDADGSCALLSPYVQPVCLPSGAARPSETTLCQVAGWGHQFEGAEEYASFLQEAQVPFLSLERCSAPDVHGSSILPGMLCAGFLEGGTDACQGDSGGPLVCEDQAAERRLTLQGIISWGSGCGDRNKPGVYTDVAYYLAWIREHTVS
# Ion channel NompC = Ion channel NompC (Danio rerio, UniProt Q7T1G6); experiment: Dose response cell-based high-throughput screening assay for agonists of the transient receptor potential channel N1 (TRPN1). [Related pubchem assays (depositor defined):AID1424, AID1448]; assay type: functional
# Sequence of Ion channel NompC (Q7T1G6 whole entry): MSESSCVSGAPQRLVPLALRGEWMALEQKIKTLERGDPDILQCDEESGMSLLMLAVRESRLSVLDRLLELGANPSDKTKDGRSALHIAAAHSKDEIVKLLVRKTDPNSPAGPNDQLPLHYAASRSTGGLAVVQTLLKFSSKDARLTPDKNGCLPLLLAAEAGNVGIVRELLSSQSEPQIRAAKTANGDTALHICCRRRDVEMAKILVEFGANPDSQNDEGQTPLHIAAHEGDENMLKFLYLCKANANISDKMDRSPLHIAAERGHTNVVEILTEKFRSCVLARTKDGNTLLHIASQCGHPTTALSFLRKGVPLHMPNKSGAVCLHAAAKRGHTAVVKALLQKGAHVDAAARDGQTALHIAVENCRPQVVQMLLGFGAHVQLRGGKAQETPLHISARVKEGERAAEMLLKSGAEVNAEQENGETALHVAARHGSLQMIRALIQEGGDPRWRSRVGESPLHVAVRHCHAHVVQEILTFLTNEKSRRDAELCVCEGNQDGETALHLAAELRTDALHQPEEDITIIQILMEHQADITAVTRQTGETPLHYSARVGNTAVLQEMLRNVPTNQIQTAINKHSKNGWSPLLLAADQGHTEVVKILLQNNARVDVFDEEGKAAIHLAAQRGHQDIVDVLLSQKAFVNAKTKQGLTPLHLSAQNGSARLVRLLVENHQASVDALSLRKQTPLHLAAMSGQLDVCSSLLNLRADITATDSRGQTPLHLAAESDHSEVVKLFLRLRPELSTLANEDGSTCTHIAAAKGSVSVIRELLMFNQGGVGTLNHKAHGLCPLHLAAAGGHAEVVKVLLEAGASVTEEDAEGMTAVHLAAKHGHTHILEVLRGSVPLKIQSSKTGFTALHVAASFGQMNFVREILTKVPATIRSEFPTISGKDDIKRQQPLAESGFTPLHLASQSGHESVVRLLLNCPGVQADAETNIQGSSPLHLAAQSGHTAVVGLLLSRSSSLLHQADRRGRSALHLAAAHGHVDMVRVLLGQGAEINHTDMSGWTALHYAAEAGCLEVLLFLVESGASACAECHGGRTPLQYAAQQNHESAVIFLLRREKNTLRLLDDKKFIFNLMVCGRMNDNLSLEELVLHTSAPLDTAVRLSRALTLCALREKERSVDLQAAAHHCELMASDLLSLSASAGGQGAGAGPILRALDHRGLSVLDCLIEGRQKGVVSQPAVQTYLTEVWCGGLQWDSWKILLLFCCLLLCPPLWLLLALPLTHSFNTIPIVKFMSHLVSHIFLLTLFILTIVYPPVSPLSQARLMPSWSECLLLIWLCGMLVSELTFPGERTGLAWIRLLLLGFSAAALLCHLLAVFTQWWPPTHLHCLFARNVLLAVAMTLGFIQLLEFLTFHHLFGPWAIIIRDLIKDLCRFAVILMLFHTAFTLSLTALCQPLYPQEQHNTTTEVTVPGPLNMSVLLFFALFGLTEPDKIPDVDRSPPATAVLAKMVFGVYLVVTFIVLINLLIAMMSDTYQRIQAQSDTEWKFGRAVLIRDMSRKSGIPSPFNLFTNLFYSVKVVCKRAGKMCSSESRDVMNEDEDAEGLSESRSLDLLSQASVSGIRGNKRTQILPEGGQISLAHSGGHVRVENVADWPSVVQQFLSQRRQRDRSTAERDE
# Mucolipin-3 = Mucolipin-3 (Homo sapiens, UniProt Q8TDD5); experiment: Fluorescence counterscreen assay for […] agonists: dose response cell-based high-throughput screening assay to identify agonists of the transient receptor potential channel ML3 (TRPML3). [Related pubchem assays: 1424, 1448 ]; assay type: functional
# Sequence of Mucolipin-3 (Q8TDD5 whole entry): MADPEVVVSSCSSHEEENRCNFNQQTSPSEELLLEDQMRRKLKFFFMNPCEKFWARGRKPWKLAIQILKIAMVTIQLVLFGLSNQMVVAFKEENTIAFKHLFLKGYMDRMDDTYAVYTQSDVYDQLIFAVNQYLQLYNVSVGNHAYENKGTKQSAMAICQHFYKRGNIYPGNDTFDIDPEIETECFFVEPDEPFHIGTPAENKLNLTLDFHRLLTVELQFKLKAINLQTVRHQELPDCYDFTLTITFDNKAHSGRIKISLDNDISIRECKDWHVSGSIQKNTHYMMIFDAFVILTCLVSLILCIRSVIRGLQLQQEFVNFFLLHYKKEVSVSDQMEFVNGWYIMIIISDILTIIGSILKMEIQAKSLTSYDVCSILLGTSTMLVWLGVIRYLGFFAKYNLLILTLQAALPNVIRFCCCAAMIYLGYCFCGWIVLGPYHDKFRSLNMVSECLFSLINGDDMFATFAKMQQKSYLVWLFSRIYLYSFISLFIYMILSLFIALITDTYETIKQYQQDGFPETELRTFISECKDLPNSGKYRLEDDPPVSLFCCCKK
# Exodeoxyribonuclease V = Exodeoxyribonuclease V (Escherichia coli (strain K12), UniProt P04993+P07648+P08394); experiment: RecBCD inhibition via phage-restricted bacterial growth – absorbance, V66 E. coli, mutant T4 phage, counter-screen for AddAB inhibitor project, dose response (AID 492957); assay type: functional, cell-based, Escherichia coli str. K-12 substr. MG1655
# [13] = target: T6, Short transient receptor potential channel 4 (Mus musculus, UniProt Q9QUQ5); experiment: calcium entry via TRPC4 opening agents – cell-based, HEK293 TRPC4/mu-opioid, Fluo-4 calcium, dose response (AID 434937); assay type: functional
# T6 sequence (Q9QUQ5 whole entry): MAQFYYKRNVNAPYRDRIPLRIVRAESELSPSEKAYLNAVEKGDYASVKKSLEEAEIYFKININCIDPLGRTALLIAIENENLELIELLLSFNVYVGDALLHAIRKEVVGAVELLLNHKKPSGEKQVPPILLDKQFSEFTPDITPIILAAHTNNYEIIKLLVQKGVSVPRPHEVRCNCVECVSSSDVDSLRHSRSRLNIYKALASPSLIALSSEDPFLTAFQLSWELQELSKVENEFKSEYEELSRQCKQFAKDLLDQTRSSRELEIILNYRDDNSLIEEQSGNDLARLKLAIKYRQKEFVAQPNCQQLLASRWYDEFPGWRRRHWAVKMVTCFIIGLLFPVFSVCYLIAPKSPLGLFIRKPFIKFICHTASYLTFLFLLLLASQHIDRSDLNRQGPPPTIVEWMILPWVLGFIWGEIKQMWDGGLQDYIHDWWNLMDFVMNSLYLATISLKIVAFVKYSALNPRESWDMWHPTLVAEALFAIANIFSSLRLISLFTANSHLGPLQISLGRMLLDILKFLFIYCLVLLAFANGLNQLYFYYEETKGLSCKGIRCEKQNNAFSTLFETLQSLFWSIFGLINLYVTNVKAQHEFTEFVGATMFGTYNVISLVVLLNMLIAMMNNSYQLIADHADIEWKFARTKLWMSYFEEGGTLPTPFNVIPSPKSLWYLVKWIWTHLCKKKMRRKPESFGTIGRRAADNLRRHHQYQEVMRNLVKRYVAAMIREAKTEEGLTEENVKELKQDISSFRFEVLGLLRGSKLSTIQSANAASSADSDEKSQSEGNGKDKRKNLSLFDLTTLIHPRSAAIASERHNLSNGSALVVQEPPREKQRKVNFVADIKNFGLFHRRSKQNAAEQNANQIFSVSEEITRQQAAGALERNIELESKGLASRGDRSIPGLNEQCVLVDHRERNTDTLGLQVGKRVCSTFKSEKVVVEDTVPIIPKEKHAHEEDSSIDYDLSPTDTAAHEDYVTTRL
# [14] = PhoP promoter GFP reporter reduction in Typhimurium – purified and synthesized compounds, set 2, PhoP regulon inhibitor project, dose response (AID 2831); assay type: functional
# [15] = Counterscreen for AddAB inhibitors: absorbance-based bacterial cell-based high throughput dose response assay for inhibitors of bacterial viability. [Related pubchem assays (depositor defined):AID435030, AID449728, AID449731, AID488942, AID488955, AID488956]; assay type: functional
# Vero = experiment: cells; assay type: functional; details: Chlorocebus sabaeus
# [16] = target: T7, Tyrosine-protein phosphatase non-receptor type 7 (Homo sapiens, UniProt P35236); experiment: inhibition of hematopoietic tyrosine phosphatase HePTP – biochemical, set 2, SAR follow-up (AID 449736); assay type: functional
# T7 sequence (P35236 whole entry): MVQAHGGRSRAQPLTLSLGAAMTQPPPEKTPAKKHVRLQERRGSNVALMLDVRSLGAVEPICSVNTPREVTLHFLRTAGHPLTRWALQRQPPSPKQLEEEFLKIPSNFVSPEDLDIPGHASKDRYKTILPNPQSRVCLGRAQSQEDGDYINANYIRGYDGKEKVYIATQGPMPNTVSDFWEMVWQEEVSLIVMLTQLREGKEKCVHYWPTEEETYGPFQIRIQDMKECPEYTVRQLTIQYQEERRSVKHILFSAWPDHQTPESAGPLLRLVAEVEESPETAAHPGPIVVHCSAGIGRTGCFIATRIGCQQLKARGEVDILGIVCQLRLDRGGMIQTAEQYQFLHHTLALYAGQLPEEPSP
smiles,measurement,setting,value
O=C(NC1(C(F)(F)F)Oc2ccccc2O1)N1CCCC1,EC50,[1],15.4 µM (active)
same,EC50,[2],18 µM (active)
same,IC50,[3],80.9 µM (active)
same,IC50,[4],> 100 µM (inactive)
CN(CC(=O)Nc1cc(S(=O)(=O)N2CCCC2)ccc1Cl)Cc1ccc2c(c1)OCO2,EC50,Integrin alpha-L,0.197 µM (active)
same,AC50,[5],13.1 µM (active)
Cc1ccc(S(=O)(=O)NCc2ccc(C(=O)NCCN3Cc4ccccc4C3)cc2)cc1,IC50,Mu-type opioid receptor,> 32 µM (inactive)
same,IC50,[6],> 32 µM (inactive)
same,IC50,[7],> 20 µM (inactive)
same,IC50,[8],> 32 µM (inactive)
CS(=O)(=O)Oc1ccc2c(c1)O/C(=C\C=C\c1ccccc1)C2=O,EC50,[9],5.46 µM (active)
same,IC50,[10],19.4 µM (not active)
same,EC50,[11],3.83 µM (active)
same,IC50,Insulin-degrading enzyme,> 55.9 µM (not active)
same,IC50,[12],17.6 µM (inactive)
same,IC50,Perilipin-1/ABHD5,11 µM (inactive)
COc1ccc(-c2nnc(SCC(=O)Nc3cc(C)on3)n2N)cc1OC,IC50,Coagulation factor XII,> 50 µM (inactive)
O=C(Nc1nnc(-c2cccs2)o1)c1cccc(C(F)(F)F)c1,EC50,Ion channel NompC,3.33 µM (active)
same,EC50,Mucolipin-3,4.5 µM (active)
same,IC50,Exodeoxyribonuclease V,68.2 µM (inactive)
same,EC50,[13],11.9 µM (active)
same,IC50,[14],> 125 µM (active)
same,IC50,[15],> 39.5 µM (inactive)
same,CC50,Vero,> 25 µM (active)
Cc1ccccc1-n1c(N)c(C(=O)N2CCOCC2)sc1=S,IC50,[16],> 100 µM (inactive)
